Assay results taken from ChEMBL document CHEMBL4725460, “Novel Amide-Substituted Heterocyclic Compounds for Treating Inflammatory and Autoimmune Diseases” (ACS Med Chem Lett, 2020).

Assay: Inhibition of IFNalpha in human whole blood assessed as reduction in IFNalpha-induced STAT phosphorylation by fluorescence assay
Format: tissue-based

Row | IC50 [nM] | Structure (SMILES)
1 | 60 | [2H]C([2H])([2H])NC(=O)c1nnc(NC(=O)OC)cc1Nc1cccc(-c2noc(CN3CCCCS3(=O)=O)n2)c1OC
2 | 60 | [2H]C([2H])([2H])NC(=O)c1nnc(NC(=O)NCC=C)cc1Nc1cccc(-c2ncn(C)n2)c1OC
3 | 20 | [2H]C([2H])([2H])NC(=O)c1nnc(NC(=O)NCC)cc1Nc1cccc(-c2ncn(C)n2)c1OC
4 | 70 | COC(=O)Nc1cc(Nc2cccc(-c3ncn(C)n3)c2OC)c(C(N)=O)nn1
5 | 30 | COC(=O)Nc1cc(Nc2cccc(-c3noc(CN4CCCCS4(=O)=O)n3)c2OC)c(C(N)=O)nn1
6 | 60 | [2H]C([2H])([2H])NC(=O)c1nnc(NC(=O)NCC#C)cc1Nc1cccc(-c2ncn(C)n2)c1OC
